Data published in publication PMC8286840, “Identifying SARS-CoV-2 antiviral compounds by screening for small molecule inhibitors of Nsp3 papain-like protease” (Biochemical Journal, 2021).
Structures can show the parent of a compound that is named as a salt. Where two headings read alike, the source gives them in different places.

Columns and labels:
[1] = target: T1, SARS-CoV-2 PLpro (nsp3 1564–1878) (Severe acute respiratory syndrome coronavirus 2, UniProt P0DTD1); test: biochemical; design: FRET-quenched peptide (Pro3) cleavage by PLpro, 10 min pre-incubation, slope over 20 min, normalised to no-compound control; details: high concentration screen, read-out: % of control remaining
[2] = target: T1, SARS-CoV-2 PLpro (nsp3 1564–1878); test: biochemical; design: FRET-quenched peptide (Pro3) cleavage by PLpro, 10 min pre-incubation, slope over 20 min, normalised to no-compound control; details: low concentration screen, read-out: % of control remaining

`CO[C@@]12[C@H](COC(N)=O)C3=C(C(=O)C(C)=C(N)C3=O)N1C[C@@H]1N[C@@H]12` [Mitomycin C] gave a remaining activity at 3.75 µM ([1]; Well no.=1672) of 110%, a remaining activity at 3.75 µM ([1]; Well no.=3563) of 100% and a remaining activity at 3.75 µM ([1]; Well no.=7364) of 102%. The remaining activity at 1.25 µM ([2]; Well no.=1672) was 110%, the remaining activity at 1.25 µM ([2]; Well no.=3563) was 98.9% and the remaining activity at 1.25 µM ([2]; Well no.=7364) was 98.5%.

`O=C1c2c(O)ccc(O)c2C(=O)c2c(NCCNCCO)ccc(NCCNCCO)c21` [Mitoxantrone HCl] gave a remaining activity at 3.75 µM ([1]; Well no.=4904) of 91.1% and a remaining activity at 1.25 µM ([2]; Well no.=4904) of 93.4%.

Work on `O=C1c2c(O)ccc(O)c2C(=O)c2c(NCCNCCO)ccc(NCCNCCO)c21` [Mitoxantrone] yielded a remaining activity at 3.75 µM ([1]; Well no.=1028) of 101%, a remaining activity at 3.75 µM ([1]; Well no.=1997) of 103% and a remaining activity at 1.25 µM ([2]; Well no.=1028) of 100%. The remaining activity at 1.25 µM ([2]; Well no.=1997) was 104%.

With `NC(=O)c1ncn([C@@H]2O[C@H](CO)[C@@H](O)[C@H]2O)c1O` [Mizoribine] the remaining activity at 3.75 µM ([1]; Well no.=876) was 107% and the remaining activity at 1.25 µM ([2]; Well no.=876) was 105%.

For `O=C(NCCN1CCOCC1)c1ccc(Cl)cc1` [Moclobemide], the remaining activity at 3.75 µM ([1]; Well no.=4640) was 98.5% and the remaining activity at 1.25 µM ([2]; Well no.=4640) was 99.1%.

Work on `CCOC(=O)[C@H](CCc1ccccc1)N[C@@H](C)C(=O)N1Cc2cc(OC)c(OC)cc2C[C@H]1C(=O)O` [Moexipril (hydrochloride)] yielded a remaining activity at 3.75 µM ([1]; Well no.=8028) of 97.8% and a remaining activity at 1.25 µM ([2]; Well no.=8028) of 98.4%.

Work on `CCOC(=O)[C@H](CCc1ccccc1)N[C@@H](C)C(=O)N1Cc2cc(OC)c(OC)cc2C[C@H]1C(=O)O` [Moexipril HCl] yielded a remaining activity at 3.75 µM ([1]; Well no.=4760) of 97.7% and a remaining activity at 1.25 µM ([2]; Well no.=4760) of 97.7%.

Work on `CCOC(=O)CC(=O)N1CCSC1COc1ccccc1OC` (centres unmarked) [Moguisteine] yielded a remaining activity at 3.75 µM ([1]; Well no.=4931) of 95.6% and a remaining activity at 1.25 µM ([2]; Well no.=4931) of 98.7%.

Work on `O=c1c(-n2ccnn2)c[nH]n1-c1cc(N2CCOCC2)ncn1` [Molidustat (BAY 85-3934)] yielded a remaining activity at 3.75 µM ([1]; Well no.=8542) of 111% and a remaining activity at 1.25 µM ([2]; Well no.=8542) of 101%.

For `CCc1c(C)[nH]c2c1C(=O)C(CN1CCOCC1)CC2` (centres unmarked) [Molindone (hydrochloride)], the remaining activity at 3.75 µM ([1]; Well no.=6905) was 93.3%, the remaining activity at 3.75 µM ([1]; Well no.=7928) was 98.2% and the remaining activity at 1.25 µM ([2]; Well no.=6905) was 98.8%. It also gave a remaining activity at 1.25 µM ([2]; Well no.=7928) of 95.5%.

`CCOC(=O)[N-]c1c[n+](N2CCOCC2)no1` [Molsidomine] showed a remaining activity at 3.75 µM ([1]; Well no.=780) of 104%, a remaining activity at 3.75 µM ([1]; Well no.=1803) of 96.1% and a remaining activity at 1.25 µM ([2]; Well no.=780) of 110%. For the same molecule, the remaining activity at 1.25 µM ([2]; Well no.=1803) was 97.9%.

`C[C@@H]1C[C@H]2[C@@H]3CCC4=CC(=O)C=C[C@]4(C)[C@@]3(Cl)[C@@H](O)C[C@]2(C)[C@@]1(OC(=O)c1ccco1)C(=O)CCl` [Mometasone furoate] gave a remaining activity at 3.75 µM ([1]; Well no.=4668) of 103%, a remaining activity at 3.75 µM ([1]; Well no.=6700) of 89.6% and a remaining activity at 1.25 µM ([2]; Well no.=4668) of 103%. The remaining activity at 1.25 µM ([2]; Well no.=6700) was 92.3%.

In the case of `CCOC(=O)C1=C(C)NC(=S)NC1c1cccc(O)c1` (centres unmarked) [Monastrol], the remaining activity at 3.75 µM ([1]; Well no.=891) is reported as 106% and the remaining activity at 1.25 µM ([2]; Well no.=891) is reported as 106%.

Molecule `CC[C@@]1([C@@H]2O[C@@H]([C@H]3O[C@@](O)(CO)[C@H](C)C[C@@H]3C)C[C@@H]2C)CC[C@H]([C@]2(C)CC[C@]3(C[C@H](O)[C@@H](C)[C@@H]([C@@H](C)[C@@H](OC)[C@H](C)C(=O)O)O3)O2)O1` [Monensin] has a remaining activity at 3.75 µM ([1]; Well no.=3413) of 99.5% and a remaining activity at 1.25 µM ([2]; Well no.=3413) of 94.8%.

With `C[C@H]1C(=O)O[C@@H]2CCN3CC=C(COC(=O)[C@](C)(O)[C@]1(C)O)[C@H]23` [Monocrotaline] the remaining activity at 3.75 µM ([1]; Well no.=3777) was 103% and the remaining activity at 1.25 µM ([2]; Well no.=3777) was 102%.

`CC(C)(O)c1ccccc1CC[C@@H](SCC1(CC(=O)O)CC1)c1cccc(/C=C/c2ccc3ccc(Cl)cc3n2)c1` [Montelukast (sodium)] showed a remaining activity at 3.75 µM ([1]; Well no.=6325) of 98% and a remaining activity at 1.25 µM ([2]; Well no.=6325) of 105%.

With `O=c1c(O)c(-c2ccc(O)cc2O)oc2cc(O)cc(O)c12` [Morin hydrate] the remaining activity at 3.75 µM ([1]; Well no.=5680) was 99.5% and the remaining activity at 1.25 µM ([2]; Well no.=5680) was 99.9%.

Molecule `O=c1c(O)c(-c2ccc(O)cc2O)oc2cc(O)cc(O)c12` [Morin] has a remaining activity at 3.75 µM ([1]; Well no.=1022) of 93.4% and a remaining activity at 1.25 µM ([2]; Well no.=1022) of 96.8%.

With `N=C(N=C(N)N)N1CCOCC1` [Moroxydine.HCl] the remaining activity at 3.75 µM ([1]; Well no.=1539) was 105% and the remaining activity at 1.25 µM ([2]; Well no.=1539) was 104%.

`CCOc1cc(N)c(Cl)cc1C(=O)NCC1CN(Cc2ccc(F)cc2)CCO1` (centres unmarked) [Mosapride (citrate)] was tested, and the remaining activity at 3.75 µM ([1]; Well no.=6657) was 109% and the remaining activity at 1.25 µM ([2]; Well no.=6657) was 104%.

Work on `CCOc1cc(N)c(Cl)cc1C(=O)NCC1CN(Cc2ccc(F)cc2)CCO1` (centres unmarked) [Mosapride citrate] yielded a remaining activity at 3.75 µM ([1]; Well no.=4807) of 103% and a remaining activity at 1.25 µM ([2]; Well no.=4807) of 101%.

With `CC1(C)CNc2cc(NC(=O)c3cccnc3NCc3ccncc3)ccc21` [Motesanib Diphosphate (AMG-706)] the remaining activity at 3.75 µM ([1]; Well no.=4611) was 100% and the remaining activity at 1.25 µM ([2]; Well no.=4611) was 101%.

`CC1(C)CNc2cc(NC(=O)c3cccnc3NCc3ccncc3)ccc21` [Motesanib] gave a remaining activity at 3.75 µM ([1]; Well no.=2697) of 103% and a remaining activity at 1.25 µM ([2]; Well no.=2697) of 104%.

For `CCCN(CCC)C(=O)C1=Cc2ccc(-c3ccc(C(=O)N4CCCC4)cc3)cc2N=C(N)C1` [Motolimod], the remaining activity at 3.75 µM ([1]; Well no.=8413) was 99% and the remaining activity at 1.25 µM ([2]; Well no.=8413) was 103%.

`COc1c(N2C[C@@H]3CCCN[C@@H]3C2)c(F)cc2c(=O)c(C(=O)O)cn(C3CC3)c12` [Moxifloxacin HCl] was tested, and the remaining activity at 3.75 µM ([1]; Well no.=4878) was 93.6% and the remaining activity at 1.25 µM ([2]; Well no.=4878) was 98.1%.

Molecule `COc1c(N2C[C@@H]3CCCN[C@@H]3C2)c(F)cc2c(=O)c(C(=O)O)cn(C3CC3)c12` [Moxifloxacin.HCl] has a remaining activity at 3.75 µM ([1]; Well no.=1568) of 96.5% and a remaining activity at 1.25 µM ([2]; Well no.=1568) of 97.8%.

In the case of `CC(=O)Oc1cc(C(C)C)c(OCCN(C)C)cc1C` [Moxisylyte (hydrochloride)], the remaining activity at 3.75 µM ([1]; Well no.=7424) is reported as 97.7% and the remaining activity at 1.25 µM ([2]; Well no.=7424) is reported as 94%.

With `CC(=O)Oc1cc(C(C)C)c(OCCN(C)C)cc1C` [Moxisylyte hydrochloride] the remaining activity at 3.75 µM ([1]; Well no.=976) was 101% and the remaining activity at 1.25 µM ([2]; Well no.=976) was 103%.

`COc1nc(C)nc(Cl)c1NC1=NCCN1` [Moxonidine hydrochloride] gave a remaining activity at 3.75 µM ([1]; Well no.=920) of 102% and a remaining activity at 1.25 µM ([2]; Well no.=920) of 100%.

Work on `COc1nc(C)nc(Cl)c1NC1=NCCN1` [Moxonidine] yielded a remaining activity at 3.75 µM ([1]; Well no.=4724) of 92.3%, a remaining activity at 1.25 µM ([2]; Well no.=4724) of 98.7% and a remaining activity at 1.25 µM ([2]; Well no.=7423) of 106%.

With `Cc1ccccc1C(=O)Nc1ccc(C(=O)N2CCCC(N(C)C)c3ccccc32)cc1` (centres unmarked) [Mozavaptan] the remaining activity at 3.75 µM ([1]; Well no.=4936) was 101%, the remaining activity at 3.75 µM ([1]; Well no.=6515) was 96.3% and the remaining activity at 1.25 µM ([2]; Well no.=4936) was 101%. The remaining activity at 1.25 µM ([2]; Well no.=6515) was 93.2%.
